Measured values: patent publication US8580794B2 (AbbVie Inc., priority 2009, dated 2013)

target: GST-Bc1-2 (Homo sapiens, UniProt P10415); assay: Time Resolved-Fluorescence Resonance Energy Transfer (TR-FRET) Bcl-2 binding assay with F-Bak peptide probe; settings: GST-Bcl-2 1 nM, F-Bak probe 100 nM, Tb-anti-GST 1 nM; '<' = below limit of detection; read-out: TR-FRET Bcl-2 Binding Ki
Sequence (P10415 whole entry): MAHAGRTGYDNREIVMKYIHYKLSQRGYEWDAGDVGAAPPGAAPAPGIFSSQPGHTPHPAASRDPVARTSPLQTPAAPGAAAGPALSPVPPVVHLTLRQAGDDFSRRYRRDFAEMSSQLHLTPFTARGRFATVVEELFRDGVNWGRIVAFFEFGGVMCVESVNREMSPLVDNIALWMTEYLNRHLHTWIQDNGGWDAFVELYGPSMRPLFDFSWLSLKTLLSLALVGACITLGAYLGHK

`O=C(NS(=O)(=O)c1ccc(NCC2CCOCC2)c([N+](=O)[O-])c1)c1ccc(N2CCN(CC3=C(c4ccc(Cl)cc4)CC4(CC3)CC4)CC2)cc1Oc1cnc2[nH]ccc2c1` [Example 328, 4-(4-{[5-(4-chlorophenyl)spiro[2.5]oct-5-en-6-yl]methyl}piperazin-1-yl)-N-({3-nitro-4-[(tetrahydro-2H-pyran-4-ylmethyl)amino]phenyl}sulfonyl)-2-(1H-pyrrolo[2,3-b]pyridin-5-yloxy)benzamide] and `O=C(NS(=O)(=O)c1ccc(NCC2CN(C3CC3)CCO2)c([N+](=O)[O-])c1)c1ccc(N2CCN(CC3=C(c4ccc(Cl)cc4)CC4(CC3)CC4)CC2)cc1Oc1cnc2[nH]ccc2c1` (stereo not shown) [Example 330, 4-(4-{[5-(4-chlorophenyl)spiro[2.5]oct-5-en-6-yl]methyl}piperazin-1-yl)-N-[(4-{[(4-cyclopropylmorpholin-2-yl)methyl]amino}-3-nitrophenyl)sulfonyl]-2-(1H-pyrrolo[2,3-b]pyridin-5-yloxy)benzamide] cannot be ordered by Ki: less than 10 pM for the first, less than 10 pM for the second.

Compared with `CC1(C)CCC(CN2CCN(c3ccc(C(=O)NS(=O)(=O)c4cnc(OCC5CCC(N(C6CC6)C6COC6)CC5)c(Cl)c4)c(Oc4cnc5[nH]ccc5c4)c3)CC2)=C(c2ccc(Cl)cc2)C1` (stereo not shown) [Example 329, N-{[5-chloro-6-({4-[cyclopropyl(oxetan-3-yl)amino]cyclohexyl}methoxy)pyridin-3-yl]sulfonyl}-4-(4-{[2-(4-chlorophenyl)-4,4-dimethylcyclohex-1-en-1-yl]methyl}piperazin-1-yl)-2-(1H-pyrrolo[2,3-b]pyridin-5-yloxy)benzamide], `CC1(C)CCC(CN2CCN(c3ccc(C(=O)NS(=O)(=O)c4cnc(OCC5CCc6nccn6C5)c(Cl)c4)c(Oc4cnc5[nH]ccc5c4)c3)CC2)=C(c2ccc(Cl)cc2)C1` (stereo not shown) [Example 342, 4-(4-{[2-(4-chlorophenyl)-4,4-dimethylcyclohex-1-en-1-yl]methyl}piperazin-1-yl)-N-{[5-chloro-6-(5,6,7,8-tetrahydroimidazo[1,2-a]pyridin-6-ylmethoxy)pyridin-3-yl]sulfonyl}-2-(1H-pyrrolo[2,3-b]pyridin-5-yloxy)benzamide] is lower in Ki: 30 pM for the first, less than 10 pM for the second.

Compared with `CC1(C)CCC(CN2CCN(c3ccc(C(=O)NS(=O)(=O)c4ccc(OCC5CN(C6CC6)CCO5)c(Cl)c4)c(Oc4cnc5[nH]ccc5c4)c3)CC2)=C(c2ccc(Cl)cc2)C1` (stereo not shown) [Example 331, N-({3-chloro-4-[(4-cyclopropylmorpholin-2-yl)methoxy]phenyl}sulfonyl)-4-(4-{[2-(4-chlorophenyl)-4,4-dimethylcyclohex-1-en-1-yl]methyl}piperazin-1-yl)-2-(1H-pyrrolo[2,3-b]pyridin-5-yloxy)benzamide], `CC1(C)CCC(CN2CCN(c3ccc(C(=O)NS(=O)(=O)c4ccc(NCC5CN(C6CC6)CCO5)c(Cl)c4)c(Oc4cnc5[nH]ccc5c4)c3)CC2)=C(c2ccc(Cl)cc2)C1` (stereo not shown) [Example 332, N-[(3-chloro-4-{[(4-cyclopropylmorpholin-2-yl)methyl]amino}phenyl)sulfonyl]-4-(4-{[2-(4-chlorophenyl)-4,4-dimethylcyclohex-1-en-1-yl]methyl}piperazin-1-yl)-2-(1H-pyrrolo[2,3-b]pyridin-5-yloxy)benzamide] is 1.8-fold lower in Ki: 1090 pM for the first, 621 pM for the second. The second binds more tightly here.

Going from `CCN(C)C(=O)N1CCOC(CNc2ccc(S(=O)(=O)NC(=O)c3ccc(N4CCN(CC5=C(c6ccc(Cl)cc6)CC(C)(C)CC5)CC4)cc3Oc3cnc4[nH]ccc4c3)cc2Cl)C1` (stereo not shown) [Example 333, 2-{[(2-chloro-4-{[4-(4-{[2-(4-chlorophenyl)-4,4-dimethylcyclohex-1-en-1-yl]methyl}piperazin-1-yl)-2-(1H-pyrrolo[2,3-b]pyridin-5-yloxy)benzoyl]sulfamoyl}phenyl)amino]methyl}-N-ethyl-N-methylmorpholine-4-carboxamide] to `CCN(C)C(=O)N1CCOC(CNc2ncc(S(=O)(=O)NC(=O)c3ccc(N4CCN(CC5=C(c6ccc(Cl)cc6)CC(C)(C)CC5)CC4)cc3Oc3cnc4[nH]ccc4c3)cc2Cl)C1` (stereo not shown) [Example 336, 2-{[(3-chloro-5-{[4-(4-{[2-(4-chlorophenyl)-4,4-dimethylcyclohex-1-en-1-yl]methyl}piperazin-1-yl)-2-(1H-pyrrolo[2,3-b]pyridin-5-yloxy)benzoyl]sulfamoyl}pyridin-2-yl)amino]methyl}-N-ethyl-N-methylmorpholine-4-carboxamide], the Ki falls from 511 pM to 198 pM (2.6-fold).

Going from `CCN(C)C(=O)N1CCO[C@H](COc2ncc(S(=O)(=O)NC(=O)c3ccc(N4CCN(CC5=C(c6ccc(Cl)cc6)CC(C)(C)CC5)CC4)cc3Oc3cnc4[nH]ccc4c3)cc2Cl)C1` [Example 334, (2S)-2-{[(3-chloro-5-{[4-(4-{[2-(4-chlorophenyl)-4,4-dimethylcyclohex-1-en-1-yl]methyl}piperazin-1-yl)-2-(1H-pyrrolo[2,3-b]pyridin-5-yloxy)benzoyl]sulfamoyl}pyridin-2-yl)oxy]methyl}-N-ethyl-N-methylmorpholine-4-carboxamide] to `CC1(C)CCC(CN2CCN(c3ccc(C(=O)NS(=O)(=O)c4cnc(NCC5CN(C6CC6)CCO5)c(Cl)c4)c(Oc4cnc5[nH]ccc5c4)c3)CC2)=C(c2ccc(Cl)cc2)C1` (stereo not shown) [Example 335, N-[(5-chloro-6-{[(4-cyclopropylmorpholin-2-yl)methyl]amino}pyridin-3-yl)sulfonyl]-4-(4-{[2-(4-chlorophenyl)-4,4-dimethylcyclohex-1-en-1-yl]methyl}piperazin-1-yl)-2-(1H-pyrrolo[2,3-b]pyridin-5-yloxy)benzamide], the Ki falls from 572 pM to 150 pM (3.8-fold).

First: CC1(C)CCC(CN2CCN(c3ccc(C(=O)NS(=O)(=O)c4ccc(NC5CCC(N(CCC#N)C6CC6)CC5)c([N+](=O)[O-])c4)c(Oc4cnc5[nH]ccc5c4)c3)CC2)=C(c2ccc(Cl)cc2)C1 (stereo not shown) [Example 340, 4-(4-{[2-(4-chlorophenyl)-4,4-dimethylcyclohex-1-en-1-yl]methyl}piperazin-1-yl)-N-{[4-({4-[(2-cyanoethyl)(cyclopropyl)amino]cyclohexyl}amino)-3-nitrophenyl]sulfonyl}-2-(1H-pyrrolo[2,3-b]pyridin-5-yloxy)benzamide]
Second: CC1(C)CCC(CN2CCN(c3ccc(C(=O)NS(=O)(=O)c4ccc(NC5CCC(N6CCC(F)(F)C6)CC5)c([N+](=O)[O-])c4)c(Oc4cnc5[nH]ccc5c4)c3)CC2)=C(c2ccc(Cl)cc2)C1 (stereo not shown) [Example 346, 4-(4-{[2-(4-chlorophenyl)-4,4-dimethylcyclohex-1-en-1-yl]methyl}piperazin-1-yl)-N-[(4-{[4-(3,3-difluoropyrrolidin-1-yl)cyclohexyl]amino}-3-nitrophenyl)sulfonyl]-2-(1H-pyrrolo[2,3-b]pyridin-5-yloxy)benzamide]
The Ki of the first is lower: less than 10 pM for the first, 42 pM for the second. The first binds more tightly here.

`O=C(NS(=O)(=O)c1cnc(OCC2(F)CCN(C3COC3)CC2)c(Cl)c1)c1ccc(N2CCN(CC3=C(c4ccc(Cl)cc4)CC4(CC3)CC4)CC2)cc1Oc1cnc2[nH]ccc2c1` [Example 345, N-[(5-chloro-6-{[4-fluoro-1-(oxetan-3-yl)piperidin-4-yl]methoxy}pyridin-3-yl)sulfonyl]-4-(4-{[5-(4-chlorophenyl)spiro[2.5]oct-5-en-6-yl]methyl}piperazin-1-yl)-2-(1H-pyrrolo[2,3-b]pyridin-5-yloxy)benzamide] showed a Ki of less than 10 pM.
